The target in experiment [1] is T1, human urokinase-type plasminogen activator (huPA) (Homo sapiens, UniProt P00749).
T1 construct: (UPA-LMW, Molecular Innovations, Novi, MI, USA) 1.5 nM; purchased Molecular Innovations UPA-LMW
The experiment in a line: huPA inhibition, fluorogenic enzyme activity assay (Z-Gly-Gly-Arg-AMC), Ki by Cheng-Prusoff. In kind it is biochemical. The conditions noted are these: 25 °C. How it is done: bicyclic peptides. The activity assay was performed by incubating […] huPA with 50 μM fluorogenic substrate Z-Gly-Gly-Arg-AMC (50 μM; Bachem, Bubendorf, Switzerland) and […]
NaCl, 10 mM MgCl2, 1mM CaCl2, 0.1% w/v BSA, 0.01% v/v Triton-X100 and 5% v/v DMSO.
The measurements were performed on a Tecan microplate reader (Tecan infinite 200 pro, Tecan Trading AG, Switzerland) using black microfluor 96-well plate Nunc MicroWell, (Thermo Fisher Scientific, Dreieich, Germany) The enzymatic reactions were performed at 25 °C for 30 min, under shacking with an excitation wavelength of 355 nm and an emission recording at 460 nm. The initial velocities were monitored as changes in fluorescence intensity. The sigmoidal curves were fitted to the data using the following non-linear regression equation for the inhibitory dose-response curves with variable slope (2): […]
where x is the peptide concentration, y is the residual percentage of protease activity and p is the hill slope. Half maximum inhibitory concentration (IC50) values were derived from the fitted curves from GraphPad Prism 8 8.0.0. software (GraphPad software, Inc., San Diego, California). The final Ki was subsequently determined using the Cheng-Prusoff equation (3): […]
where Km (115 μM) is the Michaelis constant for the hydrolysis of Z-Gly-Gly-Arg-AMC catalysed by huPA which has been determined by standard Michaelis-Menten equation.
Values were determined using either OriginPro 8G software (OriginLab Corporation, Northamppton, MA, USA) or GraphPad Prism 8.0.0. software (GraphPad software, Inc., San […]
Recombinant production of the catalytic domain of human urokinase-type […]
The low molecular weight (LMW) human urokinase-type plasminogen activator (huPA) comprising the truncated 23 amino acid peptide fragment of chain A (Lys136-Lys158 in […]

The target of experiment [2] is T1, human urokinase-type plasminogen activator (huPA). The settings on record: UK140 family of 31 phage-encoded bicyclic peptides; cited from earlier work.
A further experiment addresses T2, human plasmin (Homo sapiens, UniProt P00747).
T2 construct: Bachem; purchased Molecular Innovations HPLM
As to the kind of experiment: Specificity determination, residual protease activity (fluorogenic substrate). In kind it is biochemical. The settings on record: 25 °C, pH 7.4, H-D-Val-Leu-Lys-AMC 50 μM. On the procedure:
(§1) 5% v/v DMSO. Final concentrations of serine proteases were the following: human uPA (UPA-LMW, Molecular Innovations, Novi, MI, USA) 1.5 nM, mouse uPA (MUPA-LMW, Molecular Innovations, Novi, MI, USA) 12 nM, human tPA (HTPATC; Molecular Innovations, Novi, MI, USA) 7.5 nM, mouse tPA (MTPA, Molecular Innovations, Novi, MI, USA) 6 nM, human trypsin (HTRYP, Molecular Innovations, Novi, MI, USA) 0.05 nM, human plasmin (HPLM, Molecular Innovations, Novi, MI, USA) 1.5 nM, human plasma kallikrein (IHPKA, Innovative Research, Novi, MI, USA) 0.5 nM, human thrombin (IHT, Innovative Research, Novi, MI, USA) 10 nM, and human factor XIIa (IHFXIIa, Innovative Research, Novi, MI, USA) 6 nM. Two-fold dilutions of UK970 bicyclic peptide inhibitor were prepared ranging from 1 mM to 125 nM for all the proteases. For human uPA an extra two-fold UK970 inhibitor dilution experiment was performed by using inhibitor concentrations ranging from 2000 nM to 0.12 nM. For the determination of the Ki inhibitory constants, the following fluorogenic substrates were used at final concentration of 50 μM: Z-Gly-Gly-Arg-AMC (for human uPA, murine uPA, human tPA, murine tPA, human trypsin, human thrombin and human factor XIIa; Bachem, Bubendorf, Switzerland), Z-Phe-Arg-AMC (for human plasma kallikrein; Bachem, Bubendorf, Switzerland) and H-D-Val-Leu-Lys-AMC (for human plasmin; Bachem, Bubendorf, Switzerland). The initial velocities were monitored as changes in fluorescence intensity during 30 min on a Tecan microplate reader (Tecan infinite 200 pro, Tecan Trading AG, Switzerland) using black microfluor 96-well plate Nunc MicroWell (Thermo Fisher Scientific, Dreieich, Germany). The enzymatic reactions were performed at 25 °C under shacking with an excitation wavelength of 355 nm and an emission recording at 460 nm.
(§2) Apparent equilibrium constants Kiapps values were determined by non-linear regression analyses of Vi/V0 versus [I]0 using equation (2). The final Kis were subsequently determined by correcting for the competitive effect of the substrate [S]0 using equation (3). The kinetic constants Kms for the hydrolysis of fluorogenic substrate, catalysed by each protease, were determined by standard Michaelis-Menten equation. Values were determined using either OriginPro 8G software (OriginLab Corporation, Northamppton, MA, USA) or GraphPad Prism 8.0.0. software (GraphPad software, Inc., San Diego, California). […]

For a further experiment, the target named is T3, human tPA (htPA) (Homo sapiens, UniProt P00750).
T3 construct: purchased Molecular Innovations HTPATC
T3 sequence (P00750 311-562 limits assumed): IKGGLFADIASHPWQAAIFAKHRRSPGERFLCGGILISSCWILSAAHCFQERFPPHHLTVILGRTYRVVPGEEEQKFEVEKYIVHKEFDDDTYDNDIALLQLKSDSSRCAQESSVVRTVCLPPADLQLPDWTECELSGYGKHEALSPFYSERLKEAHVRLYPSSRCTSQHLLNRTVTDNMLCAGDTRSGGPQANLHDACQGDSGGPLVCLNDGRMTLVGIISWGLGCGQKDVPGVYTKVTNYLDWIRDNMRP
T3 sequence (P00750 36-310 partner limits assumed): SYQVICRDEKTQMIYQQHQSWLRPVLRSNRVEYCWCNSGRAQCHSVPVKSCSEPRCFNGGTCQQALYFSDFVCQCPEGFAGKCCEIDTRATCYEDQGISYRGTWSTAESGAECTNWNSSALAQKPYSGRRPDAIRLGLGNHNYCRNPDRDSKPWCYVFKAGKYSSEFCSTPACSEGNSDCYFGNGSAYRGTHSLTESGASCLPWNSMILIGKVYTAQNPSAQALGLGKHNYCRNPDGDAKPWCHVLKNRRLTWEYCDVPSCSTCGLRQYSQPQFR
The experiment is described as above. The format is biochemical. The settings on record: 25 °C, pH 7.4, Z-Gly-Gly-Arg-AMC 50 μM. On the procedure:
as §1, §2

The target in another experiment is T4, human plasma kallikrein (Homo sapiens, UniProt P03952).
T4 construct: purchased Innovative Research IHPKA
T4 sequence (P03952 391-638 limits assumed): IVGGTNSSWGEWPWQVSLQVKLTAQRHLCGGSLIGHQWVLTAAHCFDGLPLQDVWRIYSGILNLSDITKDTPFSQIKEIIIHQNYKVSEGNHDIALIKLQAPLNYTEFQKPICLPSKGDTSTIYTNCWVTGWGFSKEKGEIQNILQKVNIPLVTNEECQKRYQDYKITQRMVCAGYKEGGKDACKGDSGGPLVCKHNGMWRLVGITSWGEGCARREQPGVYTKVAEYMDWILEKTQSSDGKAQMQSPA
T4 sequence (P03952 20-390 partner limits assumed): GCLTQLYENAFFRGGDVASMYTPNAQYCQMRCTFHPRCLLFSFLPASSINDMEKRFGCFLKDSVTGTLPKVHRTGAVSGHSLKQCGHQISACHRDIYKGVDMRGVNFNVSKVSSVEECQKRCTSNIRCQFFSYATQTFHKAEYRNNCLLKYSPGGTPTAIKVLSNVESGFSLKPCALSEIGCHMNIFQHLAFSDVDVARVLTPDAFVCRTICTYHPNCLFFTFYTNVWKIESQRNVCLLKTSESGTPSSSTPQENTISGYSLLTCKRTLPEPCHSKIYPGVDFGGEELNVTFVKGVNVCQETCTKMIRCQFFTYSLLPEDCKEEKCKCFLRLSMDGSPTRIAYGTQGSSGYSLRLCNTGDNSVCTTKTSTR
The experiment is described as above. In kind it is biochemical. The conditions noted are these: 25 °C, pH 7.4, Z-Phe-Arg-AMC 50 μM. How it is done:
as §1, §2

A further experiment has as its target T5, human thrombin (Homo sapiens, UniProt P00734).
T5 construct: human thrombin (IHT, Innovative Research,; purchased Innovative Research IHT
The experiment is described as above. In kind it is biochemical. The settings on record: 25 °C, pH 7.4, Z-Gly-Gly-Arg-AMC 50 μM. How it is done:
as §1, §2

In the next experiment the target is T6, human factor XIIa (Homo sapiens, UniProt P00748).
T6 construct: human factor XIIa (IHFXIIa, Innovative Research,; purchased Innovative Research IHFXIIa
T6 sequence (P00748 373-615 limits assumed): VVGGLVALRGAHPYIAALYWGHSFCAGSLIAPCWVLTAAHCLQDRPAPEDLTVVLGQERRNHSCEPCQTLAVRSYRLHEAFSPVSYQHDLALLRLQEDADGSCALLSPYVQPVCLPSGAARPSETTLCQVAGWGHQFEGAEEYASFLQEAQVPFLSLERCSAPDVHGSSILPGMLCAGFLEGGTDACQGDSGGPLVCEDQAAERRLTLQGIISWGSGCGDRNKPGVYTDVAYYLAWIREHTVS
T6 sequence (P00748 20-372 partner limits assumed): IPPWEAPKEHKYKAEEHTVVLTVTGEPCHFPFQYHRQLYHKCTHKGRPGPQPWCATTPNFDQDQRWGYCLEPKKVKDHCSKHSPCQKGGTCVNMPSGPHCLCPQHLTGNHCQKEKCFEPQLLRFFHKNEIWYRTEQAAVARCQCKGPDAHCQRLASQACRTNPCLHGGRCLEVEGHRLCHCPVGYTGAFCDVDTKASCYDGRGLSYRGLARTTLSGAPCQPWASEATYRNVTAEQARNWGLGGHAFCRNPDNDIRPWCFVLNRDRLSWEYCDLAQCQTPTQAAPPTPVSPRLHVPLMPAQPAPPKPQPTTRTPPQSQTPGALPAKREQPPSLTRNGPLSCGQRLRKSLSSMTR
The description is as above. The conditions noted are these: 25 °C, pH 7.4, Z-Gly-Gly-Arg-AMC 50 μM. The format is biochemical. On the procedure:
as §1, §2

The target in a further experiment is T7, murine tPA (mtPA) (Mus musculus, UniProt P11214).
T7 construct: purchased Molecular Innovations MTPA
T7 sequence (P11214 33-559): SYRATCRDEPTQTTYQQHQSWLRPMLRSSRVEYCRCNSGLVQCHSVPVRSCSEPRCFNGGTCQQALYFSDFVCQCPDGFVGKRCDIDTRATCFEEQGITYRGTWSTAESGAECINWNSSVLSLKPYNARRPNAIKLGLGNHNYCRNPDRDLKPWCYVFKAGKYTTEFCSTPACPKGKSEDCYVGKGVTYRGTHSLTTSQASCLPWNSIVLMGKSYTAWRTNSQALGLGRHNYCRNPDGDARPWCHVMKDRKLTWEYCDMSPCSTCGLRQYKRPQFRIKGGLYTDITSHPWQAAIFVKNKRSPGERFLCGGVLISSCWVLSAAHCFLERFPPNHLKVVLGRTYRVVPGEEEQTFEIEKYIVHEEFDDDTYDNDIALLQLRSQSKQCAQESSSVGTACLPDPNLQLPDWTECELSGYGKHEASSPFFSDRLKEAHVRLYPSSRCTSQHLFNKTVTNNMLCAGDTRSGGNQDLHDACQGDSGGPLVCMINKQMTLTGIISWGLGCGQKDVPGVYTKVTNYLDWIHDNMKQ
Described as above. In kind it is biochemical. The conditions noted are these: 25 °C, pH 7.4, Z-Gly-Gly-Arg-AMC 50 μM. How it is done: as §1, §2

The target in a further experiment is T8, murine uPA (muPA) (Mus musculus, UniProt P06869).
T8 construct: mouse uPA (MUPA-LMW,; purchased Molecular Innovations MUPA-LMW
T8 sequence (P06869 180-433 limits assumed): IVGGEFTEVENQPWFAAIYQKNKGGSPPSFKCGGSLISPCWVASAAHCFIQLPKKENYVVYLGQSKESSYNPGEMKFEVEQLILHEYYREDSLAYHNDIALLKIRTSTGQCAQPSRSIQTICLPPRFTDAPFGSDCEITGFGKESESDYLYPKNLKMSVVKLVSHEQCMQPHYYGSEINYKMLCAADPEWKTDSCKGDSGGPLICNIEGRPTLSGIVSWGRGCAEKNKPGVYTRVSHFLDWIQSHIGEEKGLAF
T8 sequence (P06869 157-178 partner limits assumed): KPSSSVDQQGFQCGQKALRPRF
The description is as above. The format is biochemical. The settings on record: 25 °C, pH 7.4, Z-Gly-Gly-Arg-AMC 50 μM. How it is done: as §1, §2

Where [3] appears, read: pH 7.4, substrate 50 μM, mean ± S.E. of at least three measurements, read-out: Ki.

By Ki is commonly meant the dissociation constant of the complex between target and ligand, obtained from inhibition or displacement.

The structures appear in SMILES notation. Read-outs that look alike come from different tables or passages of the source. Numbered stars: 1 amine (or outer) side, 2 acyl side, 3 side chain; on linkers, the order of the positions; unused ones are H or OH. Bridge positions count the residues as written; N and C are the ends. Peptide text beside a SMILES is read from it. TBMB = c1c(C[*:1])cc(C[*:3])cc1C[*:2]

T2 sequence (P00747 581-810 limits assumed): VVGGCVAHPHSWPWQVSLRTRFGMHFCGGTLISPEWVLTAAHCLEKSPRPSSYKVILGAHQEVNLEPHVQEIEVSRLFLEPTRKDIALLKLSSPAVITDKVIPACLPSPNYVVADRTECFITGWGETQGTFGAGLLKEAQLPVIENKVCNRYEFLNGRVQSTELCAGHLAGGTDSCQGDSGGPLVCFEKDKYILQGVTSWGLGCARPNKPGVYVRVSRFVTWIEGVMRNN
T2 sequence (P00747 97-580 partner limits assumed): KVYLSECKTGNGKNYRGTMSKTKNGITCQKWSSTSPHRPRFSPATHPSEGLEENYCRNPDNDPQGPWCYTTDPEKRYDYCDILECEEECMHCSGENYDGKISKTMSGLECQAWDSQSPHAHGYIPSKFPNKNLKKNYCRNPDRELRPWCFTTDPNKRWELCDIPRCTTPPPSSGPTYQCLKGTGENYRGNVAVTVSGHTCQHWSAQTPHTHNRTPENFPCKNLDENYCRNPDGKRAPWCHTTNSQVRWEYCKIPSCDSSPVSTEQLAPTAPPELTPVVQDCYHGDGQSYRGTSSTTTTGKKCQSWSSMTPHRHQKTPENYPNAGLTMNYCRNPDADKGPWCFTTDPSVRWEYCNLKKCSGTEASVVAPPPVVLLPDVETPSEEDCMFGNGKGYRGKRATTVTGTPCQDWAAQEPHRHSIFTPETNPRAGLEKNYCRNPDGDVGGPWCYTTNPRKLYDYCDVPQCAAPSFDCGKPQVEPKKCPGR

Regarding `CC(C)[C@@H]1NC(=O)CNC(=O)[C@@H]2CSCc3cc(cc(c3)CSC[C@@H](C(=O)NCC(N)=O)NC(=O)[C@H](CO)NC(=O)[C@H](CO)NC(=O)[C@@H]3CCCN3C(=O)[C@H](CC(=O)O)NC1=O)CSC[C@H](NC(=O)[C@H](C)N)C(=O)N[C@@H](CC(N)=O)C(=O)N[C@@H](CO)C(=O)N[C@@H](CCCCN)C(=O)N[C@@H](Cc1ccccc1)C(=O)N[C@@H](CO)C(=O)NCC(=O)N2` [UK140, reference compound] (H-ACNSKFSGCGVDPSSCG-NH2; linker 2-9-16 via TBMB), the Ki in [1] (setting [3]) is 0.202 µM; in experiment [2], 0.2 µM.
Take `CC(C)[C@@H]1NC(=O)[C@H](Cc2ccccc2)NC(=O)[C@H](CCCNC(=N)N)NC(=O)[C@H](CO)NC(=O)[C@@H](NC(=O)[C@H](C)N)CSCc2cc3cc(c2)CSC[C@@H](C(=O)NCC(N)=O)NC(=O)[C@@H]2CCCN2C(=O)CNC(=O)CNC(=O)[C@H](CCCNC(=N)N)NC(=O)CNC(=O)[C@H](CCCNC(=N)N)NC(=O)[C@H](CSC3)NC(=O)[C@H](CC(=O)O)NC(=O)[C@H](C(C)C)NC1=O` [UK970] (H-ACSRFVVDCRGRGGPCG-NH2; linker 2-9-16 via TBMB): the Ki on human plasmin, at human tPA (htPA), on human plasma kallikrein, on human thrombin, at human factor XIIa and at murine tPA (mtPA) was over 1000 µM each time. The Ki on murine uPA (muPA) was over 1000 µM; in experiment [1] (pH 7.4, Z-Gly-Gly-Arg-AMC 50 μM, read-out: Ki ± S.E.) it was 0.004 ± 0.001 µM; in [1] (setting [3]), 0.0043 ± 0.0001 µM.
With `CC(C)[C@@H]1NC(=O)CNC(=O)[C@@H]2CSCc3cc(cc(c3)CSC[C@@H](C(=O)NCC(N)=O)NC(=O)[C@H](CCC(=O)O)NC(=O)[C@H](CO)NC(=O)[C@@H]3CCCN3C(=O)[C@H](CC(=O)O)NC1=O)CSC[C@H](NC(=O)[C@H](C)N)C(=O)N[C@@H](CC(N)=O)C(=O)N[C@@H](CO)C(=O)N[C@@H](CCCCN)C(=O)N[C@@H](Cc1ccccc1)C(=O)N[C@@H](CO)C(=O)NCC(=O)N2` [UK978] (H-ACNSKFSGCGVDPSECG-NH2; linker 2-9-16 via TBMB), the Ki on murine uPA (muPA) stood at 1.7 µM; in [1] (setting [3]), 0.072 ± 0.0007 µM.
